In patent US12577230B2, “2-(3-pyridin-2-yl-4-quinolin-4-yl-pyrazol-1-yl)- acetamide derivatives as inhibitors of transforming growth factor-beta receptor I/ALK5” (AGOMAB SPAIN S.L.U., priority 2020, dated 2026):

Legend:
[1] = target: T1, Human TGFβR-1 (Homo sapiens, UniProt P36897); assay: In vitro enzyme assay: inhibition of TGFβR-1 (ADP-Glo kinase assay); type: biochemical; settings: TGFβR-1 kinase 50 ng/well, 50 μM ATP, 120 min RT
T1 construct: purchased Promega V4092
T1 sequence (P36897 34-503): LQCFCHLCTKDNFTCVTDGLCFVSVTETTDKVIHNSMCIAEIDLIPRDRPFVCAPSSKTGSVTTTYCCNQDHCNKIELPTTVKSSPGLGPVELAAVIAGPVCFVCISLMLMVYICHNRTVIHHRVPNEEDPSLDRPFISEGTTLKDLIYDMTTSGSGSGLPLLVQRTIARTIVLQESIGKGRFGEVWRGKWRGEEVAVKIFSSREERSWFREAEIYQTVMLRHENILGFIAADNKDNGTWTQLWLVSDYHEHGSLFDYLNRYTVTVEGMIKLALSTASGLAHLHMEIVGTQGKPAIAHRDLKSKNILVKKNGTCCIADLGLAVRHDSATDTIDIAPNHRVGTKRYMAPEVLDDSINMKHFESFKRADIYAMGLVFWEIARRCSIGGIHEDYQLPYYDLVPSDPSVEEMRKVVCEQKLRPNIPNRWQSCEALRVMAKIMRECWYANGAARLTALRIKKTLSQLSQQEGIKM
Source text: In the present application are used the following abbreviations, with the corresponding definitions: • AcOH: Acetic Acid • ACVR2B: activin A receptor, type IIB • ALKn: activin receptor-like kinase n • ATP: adenosin triphosphate • Boc2O: tert-butyl dicarbonate • Boc: tert-Butoxycarbonyl • Clint: Intrinsic clearance • DIPEA: N,N-Diisopropylethylamine • DMA: Dimethylacetamide • DMAP: 4-Dimethylaminopyridine • DMF: N,N-Dimethylformamide • DMSO: Dimethyl sulfoxide • EDCl: N-(3-Dimethylaminopropyl)-N′-ethylcarbodiimide) • Et3N: Triethylamine • EtOAc: Ethyl acetate • EtOH: ethanol • FBS: Fetal bovine serum • H: hour • HATU: 1-[Bis(dimethylamino)methylene]-1H-1,2,3-triazolo[4,5-b]pyridinium 3-oxide hexafluorophosphate • HOBT: Hydroxybenzotriazole • HPLC: High-performance liquid chromatography • ^1H-NMR: Proton nuclear magnetic resonance • K2EDTA: ethylenediaminetetracetic acid dipotassium salt • LC: Liquid chromatography • LiHMDS: Lithium bis(trimethylsilyl)amide • LLOQ: lower limit of quantification • MeCN: Acetonitrile • MeOH: Methanol • Min: minutes • MS: Mass spectroscopy • MTBE: Methyl tert-butyl ether • NBS: N-Bromosuccinimide • NaCMC: Sodium carboxymethyl cellulose • Rt: retention time • RT: room temperature • Sem: 2-(Trimethylsilyl)ethoxymethyl • TGFβ: transforming growth factor-β • THF: Tetrahydrofuran • THF:EtOH: Tetrahydrofuran:ethanol • UPLC: ultra high-performance liquid chromatography • UV: Ultraviolet Pharmacological Activity In Vitro Enzyme Assay: Inhibition of TGFβR-1 Human TGFβR-1 inhibition experiments were carried out in a white 384-microplate low flange (Corning 3572) with ADP-Glo kinase Assay Kit (Promega V9101) and TGFβR-1 Kinase Enzyme System (Promega V4092). Test compounds and standard Galunisertib (Cayman 15312), 50 ng/well TGFβR-1 kinase and 50 μM ATP were added in a final volume of 10 μL/well, using Reaction buffer supplied by kit as assay buffer. The reaction mixture was incubated in gentle shaking for 120 min at RT, after incubation of 10 μL of ADP-Glo Reagent was added and incubated in gentle shaking for 40 min at RT. 20 μL of Kinase Detection Reagent was added and plate was incubated in gentle shaking for 30 min at RT. Luminescence (1000 ms) was measured in Perkin Elmer EnSpire Multimode plate reader. Results

[2] = target: T2, ALK-5 (Homo sapiens, UniProt P36897); assay: Determination of the intracellular TGF-beta kinase activity (ALK-5), AlphaLISA SureFire p-SMAD3 in A549 cells; type: cell-based; settings: A549 cell line, TGF-β2 activated, p-SMAD3(Ser423/425)
T2 construct: endogenous in cells; host or cells: A549
T2 sequence (P36897 34-503): T1 sequence (P36897 34-503)
Procedure: Determination of the Intracellular TGF-Beta Kinase Activity (ALK-5)
The experiments were carried out in A549 cell line. 30000 cells were seeded in 200 μl of culture medium (Sigma D6046) supplemented with L-Glutamine (Sigma G7513), Penicillin/Streptomycin (Invitrogen 11058) and FBS (Sigma F9665) on a 96 wells microplate (Becton Dickinson 353072). After 16 hours medium was changed to serum free medium. Galunisertib, as inhibitor ligand (Cayman CAY-15312) and recombinant Human TGF-β2 (R&D Systems 302-B2-002) as activator of the ALK-5, were added in their corresponding wells and incubated following the instructions of the Alphascreen AlphaLISA@SureFire® Ultra™ p-SMAD3(Ser423/425) Kit (Perkin Elmer ALSU-PSM3-A500).

[3] = Determination of plasma stability in human plasma; type: in vitro ADME; settings: 10 μM, 37° C.
Procedure: Determination of Plasma Stability of Some Compounds
Human plasma pooled from healthy donors extracted in citrate tubes was employed in the assay. Briefly, plates containing 10 μM compounds in plasma (total volume: 50 μL) were incubated at 37° C. at the different times (0, 30, 120 and 360 min). Then 100 μl Acetonitrile were added for precipitating plasma protein, and the plate was centrifuged at 46000 g for 60 min at 5° C. Supernatant was taken and analysed by UPLC/MS/MS for sample quantification. Stationary phase: Reverse phase Acquity UPLC® BEH C18 1.7 μm (2.1 mm×50 mm) (Waters). Mobile phase: 0.1% Formic acid water/0.1% formic acid in acetonitrile.
Flow: 0.6 ml/min. The chromatographic equipment employed was an UPL QSM Waters Acquity. Compound concentrations were calculated from the MS peak areas.

Cc1cccc(-c2nn(CC(=O)Nc3cc(F)cc(C(=O)OCCN(C)C)c3)cc2-c2ccnc3ccccc23)n1 [Example 1, 2-(dimethylamino)ethyl 3-fluoro-5-(2-(3-(6-methylpyridin-2-yl)-4-(quinolin-4-yl)-1H-pyrazol-1-yl)acetamido)benzoate]
IC50 [1]: < 100 nM | IC50 [2]: < 1000 nM | remaining percentage 0 min [3]: 100% | remaining percentage 30 min [3]: 0% | remaining percentage 120 min [3]: 0% | remaining percentage 360 min [3]: 0%

Cc1cccc(-c2nn(CC(=O)Nc3ccc(C(=O)OCCN(C)C)nc3)cc2-c2ccnc3ccccc23)n1 [Example 5, 2-(dimethylamino)ethyl 5-(2-(3-(6-methylpyridin-2-yl)-4-(quinolin-4-yl)-1H-pyrazol-1-yl)acetamido)picolinate]
IC50 [1]: < 100 nM | IC50 [2]: > 1000 nM | remaining percentage 0 min [3]: 100% | remaining percentage 30 min [3]: 10% | remaining percentage 120 min [3]: 0% | remaining percentage 360 min [3]: 0%

CCN(CC)CCOC(=O)c1cc(F)cc(NC(=O)Cn2cc(-c3ccnc4ccccc34)c(-c3cccc(C)n3)n2)c1 [Example 7, 2-(diethylamino)ethyl 3-fluoro-5-(2-(3-(6-methylpyridin-2-yl)-4-(quinolin-4-yl)-1H-pyrazol-1-yl)acetamido)benzoate]
IC50 [1]: 100 to 250 nM | IC50 [2]: < 1000 nM | remaining percentage 0 min [3]: 100% | remaining percentage 30 min [3]: 16.0% | remaining percentage 120 min [3]: 3.3% | remaining percentage 360 min [3]: 0.1%

Cc1cccc(-c2nn(CC(=O)Nc3cc(F)cc(C(=O)OCC4CCN(C)CC4)c3)cc2-c2ccnc3ccccc23)n1 [Example 9, (1-methylpiperidin-4-yl)methyl 3-fluoro-5-(2-(3-(6-methylpyridin-2-yl)-4-(quinolin-4-yl)-1H-pyrazol-1-yl)acetamido)benzoate]
IC50 [1]: < 100 nM | IC50 [2]: < 1000 nM | remaining percentage 0 min [3]: 100% | remaining percentage 30 min [3]: 16.6% | remaining percentage 120 min [3]: 3.1% | remaining percentage 360 min [3]: 0%

CNCCOC(=O)c1cc(F)cc(NC(=O)Cn2cc(-c3ccnc4ccccc34)c(-c3cccc(C)n3)n2)c1 [Example 15, 2-(methylamino)ethyl 3-fluoro-5-(2-(3-(6-methylpyridin-2-yl)-4-(quinolin-4-yl)-1H-pyrazol-1-yl)acetamido)benzoate]
IC50 [1]: < 100 nM | IC50 [2]: > 1000 nM

Cc1cccc(-c2nn(CC(=O)Nc3cc(F)cc(C(=O)OCCN4CCNCC4)c3)cc2-c2ccnc3ccccc23)n1 [Example 19, 2-(piperazin-1-yl)ethyl 3-fluoro-5-(2-(3-(6-methylpyridin-2-yl)-4-(quinolin-4-yl)-1H-pyrazol-1-yl)acetamido)benzoate]
IC50 [1]: < 100 nM | IC50 [2]: < 1000 nM | remaining percentage 0 min [3]: 100% | remaining percentage 30 min [3]: 1.9% | remaining percentage 120 min [3]: 0.3% | remaining percentage 360 min [3]: 0%

Cc1cccc(-c2nn(CC(=O)Nc3cc(F)cc(C(=O)OC4CCNCC4)c3)cc2-c2ccnc3ccccc23)n1 [Example 21, piperidin-4-yl 3-fluoro-5-(2-(3-(6-methylpyridin-2-yl)-4-(quinolin-4-yl)-1H-pyrazol-1-yl)acetamido)benzoate]
IC50 [1]: < 100 nM | IC50 [2]: > 1000 nM | remaining percentage 0 min [3]: 100% | remaining percentage 30 min [3]: 74.3% | remaining percentage 120 min [3]: 34.2% | remaining percentage 360 min [3]: 6.3%
